According to ChEMBL document CHEMBL4229545, “Oximes short-acting CB1 receptor agonists” (Bioorg Med Chem, 2018):

Legend:
Cannabinoid receptor 2 [1] = biological target: Cannabinoid receptor 2 (Mus musculus, UniProt P47936); experiment: Displacement of [3H]CP-55,940 from recombinant mouse Cb2 receptor expressed in HEK293 cells; type: cell-based
Cannabinoid receptor 1 [2] = biological target: T1, Cannabinoid receptor 1 (Rattus norvegicus, UniProt P20272); experiment: Displacement of [3H]CP-55,940 from rat brain Cb1 receptor
T1 sequence (P20272 whole entry): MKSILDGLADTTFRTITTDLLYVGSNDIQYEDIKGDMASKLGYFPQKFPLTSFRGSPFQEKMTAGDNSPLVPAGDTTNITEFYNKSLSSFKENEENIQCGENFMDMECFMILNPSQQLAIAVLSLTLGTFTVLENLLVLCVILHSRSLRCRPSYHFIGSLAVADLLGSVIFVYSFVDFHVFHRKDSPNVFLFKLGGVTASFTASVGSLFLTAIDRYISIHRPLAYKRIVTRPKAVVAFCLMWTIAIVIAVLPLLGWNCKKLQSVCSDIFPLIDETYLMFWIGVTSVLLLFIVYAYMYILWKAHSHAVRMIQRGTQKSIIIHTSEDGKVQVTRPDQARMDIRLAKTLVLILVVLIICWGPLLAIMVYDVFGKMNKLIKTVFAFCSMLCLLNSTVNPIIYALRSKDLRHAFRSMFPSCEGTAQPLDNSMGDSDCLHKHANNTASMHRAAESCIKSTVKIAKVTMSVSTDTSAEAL

Cannabinoid receptor 2 [3] = biological target: T2, Cannabinoid receptor 2 (Homo sapiens, UniProt P34972); experiment: Agonist activity at recombinant human Cb2 receptor expressed in HEK293 cells assessed as inhibition of forskolin-stimulated cAMP levels relative to CP-55940; type: functional, cell-based
T2 sequence (P34972 whole entry): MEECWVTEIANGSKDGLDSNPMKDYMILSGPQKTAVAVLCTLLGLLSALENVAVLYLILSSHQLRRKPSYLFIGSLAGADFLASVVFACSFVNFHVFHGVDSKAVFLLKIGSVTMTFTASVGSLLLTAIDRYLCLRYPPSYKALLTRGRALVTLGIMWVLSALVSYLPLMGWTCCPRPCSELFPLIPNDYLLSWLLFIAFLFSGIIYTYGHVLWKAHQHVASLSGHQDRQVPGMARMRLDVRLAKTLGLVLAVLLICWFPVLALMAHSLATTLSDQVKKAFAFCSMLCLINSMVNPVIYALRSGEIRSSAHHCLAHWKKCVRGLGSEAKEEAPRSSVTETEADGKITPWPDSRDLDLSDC

Cannabinoid receptor 1 [4] = biological target: T1, Cannabinoid receptor 1; experiment: Agonist activity at recombinant rat Cb1 receptor expressed in HEK293 cells assessed as inhibition of forskolin-stimulated cAMP levels; type: functional, cell-based
Cannabinoid receptor 2 [5] = biological target: T2, Cannabinoid receptor 2; experiment: Agonist activity at recombinant human Cb2 receptor expressed in HEK293 cells assessed as inhibition of forskolin-stimulated cAMP levels; type: functional, cell-based
[6] = biological target: Cannabinoid receptor 1 (Rattus norvegicus) (UniProt P20272); experiment: Agonist activity at recombinant rat Cb1 receptor expressed in HEK293 cells assessed as inhibition of forskolin-stimulated cAMP levels relative to control; type: functional, cell-based
Sequence of Cannabinoid receptor 1 (Rattus norvegicus) (P20272 whole entry): as the sequence (P20272 whole entry) above

Cannabinoid receptor 2 [7] = biological target: T2, Cannabinoid receptor 2; experiment: Displacement of [3H]CP-55,940 from recombinant human Cb2 receptor expressed in HEK293 cells; type: cell-based

Sequence of Cannabinoid receptor 2 (Mus musculus, UniProt P47936) (P47936 whole entry): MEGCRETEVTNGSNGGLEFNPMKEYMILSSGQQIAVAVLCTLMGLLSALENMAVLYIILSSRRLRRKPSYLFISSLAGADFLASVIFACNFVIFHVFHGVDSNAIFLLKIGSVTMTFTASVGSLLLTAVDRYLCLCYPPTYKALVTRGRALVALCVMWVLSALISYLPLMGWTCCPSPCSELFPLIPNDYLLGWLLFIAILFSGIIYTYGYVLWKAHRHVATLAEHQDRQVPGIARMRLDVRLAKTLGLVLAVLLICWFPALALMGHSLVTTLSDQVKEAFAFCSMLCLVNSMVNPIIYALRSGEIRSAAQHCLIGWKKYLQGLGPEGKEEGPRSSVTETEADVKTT

Structure (SMILES)	Ki (Cannabinoid receptor 2 [1]) [nM]	Ki (Cannabinoid receptor 1 [2]) [nM]	Emax (Cannabinoid receptor 2 [3]) [%]	EC50 (Cannabinoid receptor 1 [4]; read-out: EC50) [nM]	EC50 (Cannabinoid receptor 2 [5]; read-out: EC50) [nM]	Emax [6] [%]	Ki (Cannabinoid receptor 2 [7]) [nM]	EC50 (Cannabinoid receptor 2 [5]; hek293)	EC50 (Cannabinoid receptor 1 [4]; hek293)
CCO/N=C(\C)c1cc(O)c2c(c1)OC(C)(C)[C@H]1CC=C(C)C[C@H]21	74.8	66.1	–	–	–	–	–	–	–
CC1=CC[C@H]2[C@H](C1)c1c(O)cc(/C(C)=N/OCCN3CCCCC3)cc1OC2(C)C	4.1	5.6	147	12.7	65.7	31	2.5	–	–
CC1=CC[C@H]2[C@H](C1)c1c(O)cc(/C(C)=N/OCCCCF)cc1OC2(C)C	2.5	4.1	–	0.7	–	39	9.7	Not Active	–
CC1=CC[C@H]2[C@H](C1)c1c(O)cc(/C(C)=N/OCCCC(F)(F)F)cc1OC2(C)C	0.5	0.3	43	0.4	1	69	3	–	–
CC1=CC[C@H]2[C@H](C1)c1c(O)cc(/C(C)=N/OCCN3CCCC3)cc1OC2(C)C	6.7	6.6	–	–	–	–	8.4	–	–
CCCCCc1cc(O)c2c(c1)OC(C)(C)[C@H]1CC=C(C)C[C@H]21	40.4	–	–	–	–	–	–	–	–
CC1=CC[C@H]2[C@H](C1)c1c(O)cc(/C(C)=N/OCCOc3ccccc3)cc1OC2(C)C	3.7	11.4	99	0.9	49.6	56	6.2	–	–
CC1=CC[C@H]2[C@H](C1)c1c(O)cc(/C(C)=N\OCCCc3ccccc3)cc1OC2(C)C	2.8	5	98	–	1.7	–	2.9	–	Not Active
CC1=CC[C@H]2[C@H](C1)c1c(O)cc(/C(C)=N/OCCN3CCOCC3)cc1OC2(C)C	1.8	7	–	–	–	–	0.7	–	–
